Test results: patent US20010049389A1, “Arthropod-controlling composition” (priority 2000, published 2001)

Legend:
Type in all cases: in vivo
[1] = test system: adult copra mites (Tyrophagus putrescentiae); assay: Test Example 11: treated drawing paper, copra mites; details: drawing paper 800 mg/m^2, 25° C., 75% humidity, 24 hours
Protocol: On a black drawing paper having 38 mm in diameter, 0.2 ml of an acetone solution of the Pyrone Compound was added dropwise and air-dried. The treated dosage was 800 mg/m^2. The drawing paper was set on an aluminum plate having 38 mm in diameter and adhesives were put on the edge to prevent for tested mites to escape. About 30 adult copra mites (Tyrophagus putrescentiae) were released on the drawing paper and kept at 25° C. and 75% of humidity for 24 hours. After that, the mortality was observed. The result was 93%.

[2] = test system: adult smokybrown cockroaches (Periplaneta fuliginosa); assay: Test Example 5: heating fumigant (ceramic plate) in 5.8 m^3 chamber, smokybrown cockroaches; details: heating fumigant (Preparation example 24, 500 mg) at about 200° C. in 5.8 m^3 chamber
Protocol: On the bottom of a cubic chamber having 1.8 m of side (5.8 m^3), the heating fumigant (ceramic plate) obtained in Preparation example 24 with an electric heater was set in the center. Two plastic cups were put at two corners in the chamber, wherein each cup has ten (5 males and 5 females) adult German cockroaches (Blattella germanica) therein. Two hours after turning on an electric current, the ceramic plate was heated to about 200° C. (200±5° C.) and the active ingredient was vaporized. The heating temperature was estimated by measuring a surface temperature of the ceramic plate with radiation pyrometer (TR-0506C produced by Minolta Company) in advance. Then, the knocked-down cockroaches were counted and the knock-down percentage was calculated. Further, the cockroaches were transferred to a clean plastic cup and given foods and water. The mortality was observed after 7 days.
(§1) Furthermore, the same tests were performed except that six (3 males and 3 females) adult smokybrown cockroaches (Periplaneta fuliginosa) and six (3 males and 3 females) adult American cockroaches (Periplaneta americana) were used in place of ten German cockroaches.

[3] = test system: 4-instar larvae of tobacco cutworm (Spodoptera litura); assay: Test Example 17: treated cabbage leaf disc, feeding damage by tobacco cutworm; details: 50 μg on cabbage leaf disc of 1 cm diameter, after 24 hours, 5 repetitions
Protocol: (§2) A methanol solution (50 μg/20 μl) of the Pyrone Compound was prepared. The solution (20 μl) was painted on a cut leaf disc of cabbage (1 cm in diameter). After vaporizing methanol, the leaf disc was put on a filter paper, which was wet with 1 ml of water, in Petri dish making the painted surface upside. Two 4-instar larvae of tobacco cutworm (Spodoptera litura) were put in the Petri dish. After 24 hours, the damage of the leaf disc was observed and compared with the test result of the non-treated disc. The tests were repeated 5 times.

[4] = test system: termites (Coptotermes formosanus); assay: Test Example 9: treated soil after 3 months storage, termites; details: 10 ml of 0.5% (w/w) solution in 200 g soil, kept 3 months at 40° C. in the dark, after 10 days
Protocol: The Pyrone Compound was dissolved in water to give a 10 ml solution having 0.5% (w/w) of a concentration. The solution was mixed with 200 g of soil and air-dried. After keeping for 3 months at 40° C. and in the dark, about 10 g of the soil were put on a plastic Petri dish having 9 cm in diameter. The soil was wetted with distilled water and 10 termites (Coptotermes formosanus) were released thereon. After 10 days, the termites were observed and the percent moribund was 100%.

[5] = test system: first-instar larvae of summer fruit tortrix (Adoxophyes orana fasciata); assay: Test Example 19: treated artificial food, summer fruit tortrix larvae; details: 1 ml of 500 ppm dilution (Preparation example 2) in 6 g artificial food, after 6 days
Protocol: The formulation obtained in Preparation example 2 was diluted with water to make the concentration of the Pyrone Compound to 500 ppm. One milliter (1 ml) of the dilution was added to 6 g of artificial food (Insecta LF produced by Nihon Nosankogyo Co.) in plastic cup having 5.5 cm in diameter. Thirty first-instar larvae of summer fruit tortrix (Adoxophyes orana fasciata) were put into the plastic cup. After 6 days, the mortality was 90% or more.

[6] = test system: adult American cockroaches (Periplaneta americana); assay: Test Example 4: smoking formulation in 28 m^3 chamber, American cockroaches; details: 10 g smoking (Preparation example 25) in 28 m^3 chamber
From the text: In a test chamber of 3 m×4 m and 2.3 m in height (28 m^3), two plastic cups were put at two corners, wherein each cup has ten (5 males and 5 females) adult German cockroaches (Blattella germanica) therein. Ten grams (10 g) of the smoking obtained in Preparation example 25 and 50g of magnesium oxide were charged into each of the cells in an aluminum container having an aluminum wall. The cell charged magnesium oxide has small holes. The aluminum container was dipped into water in the plastic container set in the test chamber. The smoking was heated to release the vaporized active ingredient by the reaction heats of magnesium oxide with water. After 2 hours, knock-down percentage was observed. Further, the cockroaches were transferred to a clean plastic cup and given foods and water. The mortality was observed after 7 days.
as §1

[7] = test system: centipede (Scolopendra subspinipes mutilans); assay: Test Example 22: oil-based aerosol spray, centipede; details: about 1000 mg of 1.0% oil-based aerosol sprayed, after 3 days
Protocol: According to Preparation examples 10-14, 1.0% oil-based aerosol of the Pyrone Compound was obtained. A container (12.5 cm in diameter, 17.5 cm in height, bottom covered 16-mesh iron net and inside wall painted butter for preventing tested pill bugs to escape) having a centipede (Scolopendra subspinipes mutilans) therein was set on the bottom center of a glass cylinder having 20 cm in diameter and 60 cm in height. About 1000 mg of the above oil-based aerosol were sprayed to the centipede from the upper part of the cylinder. After 30 seconds, the centipede was taken out and put into a clean plastic cup and given food and water. It was observed that the centipede was dead after 3 days.

[8] = test system: 3-instar larvae of diamondback moth (Plutella xylostella); assay: Test Example 18: treated cabbage leaf disc, feeding damage by diamondback moth; details: 50 μg on cabbage leaf disc of 1 cm diameter, after 24 hours
Protocol: as §2
The same procedure was performed as in Test example 17 except that five 3-instar larvae of diamondback moth (Plutella xylostella) was used in place of tobacco cutworm (Spodoptera litura).

ants (Formica japonica) = assay: Test Example 14: oil-based aerosol spray, ants; details: about 450 mg of 1.0% oil-based aerosol sprayed, after 2 days
Protocol: According to Preparation examples 10-14, 1.0% oil-based aerosol of the Pyrone Compound was obtained. In a 200 cc plastic cup having inside wall painted talc for preventing tested ants to escape, about 30 g of soil were set and 10 ants (Formica japonica) were release thereon. The plastic cup was set on the bottom center of a glass cylinder having 20 cm in diameter and 60 cm in height. About 450 mg of the above oil-based aerosol were sprayed to the ants from the upper part of the cylinder. After 10 seconds, the ants were taken out and put into a clean plastic cup having a piece of watermelon peel as food therein. After 2 days, the mortality was observed and the result was 70%.

## Cc1cc(O)c(C(=O)CC(C)C)c(=O)o1 [The Pyrone Compound]
[1]
  mortality: 93%
[2]; after 7 days
  Mortality (%): 83%
[2]; two hours
  Knock-down percentage (%): 100%
[3]
  damage of the leaf disc compared with the non-treated disc: clearly smaller
[4]
  percent moribund: 100%
[5]
  mortality: ≥ 90%
[6]; after 2 hours
  Knock-down percentage (%): 100%
[6]; after 7 days
  Mortality (%): 75%
[7]
  state of the centipede after spraying: dead
[8]
  damage of the leaf disc compared with the non-treated disc: clearly smaller
Ants (Formica japonica)
  mortality: 70%
